According to patent US11466020B2, “Compounds and compositions for inhibition and elimination of Zika infection and uses for same” (Cornell University, priority 2017, dated 2022):
Entries after “also recorded” stand apart in the source; their conditions may differ. Counter-ions that a name gives are not always drawn.

System: ZIKV (MR766 strain)
Assay: ZIKV infection of human forebrain organoids (MR766)
Assay type: cell-based, Zika virus
Experimental: (A) Experimental design for evaluating the therapeutic efficacy and safety of HH using forebrain organoids. D20 or D40 Forebrain organoids were exposed to ZIKV (5×10^5 PFU/ml) or mock-treated for 24 h. After removal of ZIKV-containing medium, fresh virus-free medium plus compounds were added. Organoids were analyzed at day 4 (D20+4) or day 18 (D20+18) after initial ZIKV infection. (B and C) HH eliminates ZIKV infection in short-term cultures. Immunocytochemistry analysis (B) and the quantification of infection rate (C) of mock, DMSO or 25 μM HH treated ZIKV-infected D20 organoids (n=3). Scale bars, 100 μm. D20+4 organoids mainly consist of SOX2^+ progenitors and are highly infiltrated by ZIKV. […] (D) qRT-PCR analysis of total ZIKV vRNA in the supernatant of DMSO or 25 μM HH treated ZIKV-infected D20 and D40 organoids (n=3). (E) HH rescues ZIKV-related proliferation and apoptosis defects in D20+4 organoids. The number of proliferating cells (Ki67^+) is decreased and the number of apoptotic cells (CAS^+) is increased in ZIKV-infected organoids compared to mock and 25 μM HH treated organoids (n=3). Scale bars, 100 μm. […] Scale bars, 50 μm. […] Quantifications show average organoid perimeter of D20+18 organoids (H). Values represent mean±SEM (n=3). Scale bars, 1 mm. (I) HH rescues ZIKV-induced structural defects in forebrain organoids. Mock treated organoids contain clearly defined progenitor (SOX2) and neuronal (TUJ1) zones. Neurons migrate out of progenitor zones and settle at the edge of the organoid, while progenitor zones occupy more interior regions of the organoid. In contrast, D20+18 ZIVK infected organoids lack clearly defined progenitor and neuronal zones, which appear to intermix. Both neuron and progenitor zones appear to settle at the edge of the organoid. HH rescues the well-delineated structure of forebrain organoids (n=3). Scale bars, 100 μm. p values were calculated by unpaired two-tailed Student's t-test. *p<0.05, **p<0.01 and ***p<0.001.
D20 forebrain organoids were inoculated with ZIKV (MR766 strain) for 24 h, followed by treatment with 15 μM AQ or 25 μM HH for 3 days (D20+4, short-term) or 17 days (D20+18, long-term). Organoids were analyzed for ZIKV infection, cell proliferation, and apoptosis (FIG. 3A).
Generation and culture of human forebrain organoids. To induce forebrain organoid differentiation, H9 hESC line (WA-09, WiCell) hPSCs were dissociated to single cells using EDTA, and 9000 cells were reaggregated using low-adhesion V-bottom 96 well plates (Wako) in Essential8 Medium (Fisher Scientific) with 10 μM Y-27632 (Tocris Biosciences). After 24 h (day 0), medium was changed to Essential6 (Fischer Scientific) supplemented with 10 μM SB431542 (Tocris Biosciences), 500 nM LDN193189 (Stem Cell Technologies), and 2 μM XAV939 (Tocris Biosciences) until day 4. […]

SMILES	ZIKV infection in D20 organoids (15 μM AQ, D20+4, dihydrochloride dihydrate)	total ZIKV vRNA level in supernatant from D20+4 organoids (25 μM HH)	ZIKV infection rate in D20+4 forebrain organoids (25 μM HH, 3 day treatment, hydrobromide)	ZIKV infection in D20+18 organoids (long-term) (HH treated, 18 days after infection, hydrobromide)
CCN(CC)Cc1cc(Nc2ccnc3cc(Cl)ccc23)ccc1O [AQ, amodiaquine dihydrochloride dihydrate]	suppresses ZIKV infection; also recorded: reduces ZIKV infection	–	–	–
CN1CCC2=C[C@H](O)[C@H]3OC(=O)c4cc5c(cc4[C@H]3[C@@H]21)OCO5 [HH, hippeastrine hydrobromide]	–	suppresses total ZIKV vRNA level	undetectable levels; also recorded: below the detection limit	devoid of any detectable ZIKV; also recorded: suppressed any detectable ZIKV infection
